Earlier results on two compounds are cited in US6034286A, “Processes for producing saturated alcohols” (Union Carbide Chemicals & Plastics Technology Corporation, priority 1997, dated 2000).

One may read the pKa as the pH at which an ionisable group is half protonated. A word on the pKb: it is the negative decadic logarithm of the Kb, by convention in mol/L.

For data set [1] the following is noted: Table II, promoter; approximate values.
For data set [2] the following is noted: Table I, organophosphorus ligand.

With `N#CCC#N` [CNCH2 CN], in data set [1], the pKa is 11.
Take `c1ccc(P(c2ccccc2)c2ccccc2)cc1` [Triphenylphosphine]: the pKb in data set [2] is 2.74.
